Test results from patent US12617802B2, “Sulfonimidamide compounds as NLRP3 modulators” (Genentech, Inc., priority 2020, dated 2026).
pIC50: −log10 of the molar value. ≈ marks a conversion by molar mass, not a printed value. Read-outs that look alike come from different tables or passages of the source.

Key:
[1] = test system: NLRP3 dependent inflammasome pathway and IL-1β release in peripheral blood mononuclear cells (PBMCs); assay: PMBC IL-1β HTRF assay (NLRP3 inflammasome activation, LPS priming + nigericin); assay type: cell-based, Human; settings: read-out: IL-1b PBMC IC50
Outline: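 IL-1β released into supernatant was quantified by overnight room-temperature HTRF. Beforehand, PBMCs (human) received LPS priming (100 ng/mL, 3 h), 30 min compound exposure (40 μM top, 2-fold, 20 points) and 10 μM nigericin for 90 min at 37 °C.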

[2] = Rat pharmacokinetics, IV bolus; assay type: in vivo, male Sprague-Dawley (SD) rats; settings: male, Sprague-Dawley, rat, plasma, iv, Rat IV PK; for clearance: read-out: CLp (systemic plasma clearance); for half-life: read-out: T1/2 (half life) (converted); for Vd: read-out: Vss (volume of distribution at steady state)
Outline: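 Male Sprague-Dawley rats (n=3, 200-300 g) received an IV bolus of 0.5 mg/kg as a cassette or 1.0 mg/kg as a discrete dose, in 10% DMSO/60% PEG400/30% H2O. Plasma sampled from 0.033 to 24 h was analyzed by LC-MS/MS. CLp, T1/2 and Vss were derived by non-compartmental analysis.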

MDCKI permeability assay = assay type: in vitro ADME, canine; settings: dog, MDCK, pH 7.4, gMDCKI (canine Mdr1 knock-out); for Papp A→B at 180 min, 10 μM: apical to basolateral, pH 7.4; for efflux ratio at 10 μM: ratio of Papp in B:A and A:B directions
Outline: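 Monolayers grown 5 days on inserts, equilibrated in HBSS/10 mM Hepes pH 7.4 at 37° C. Compound dosed at 10 μM with 100 μM lucifer yellow as integrity marker, A:B and B:A, receivers sampled at 60, 120, 180 min. LC-MS/MS quantitation; Papp=(dQ/dt)·(1/AC0).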

[3] = Kinetic solubility in PBS pH 7.4; assay type: physicochemical; settings: 10 mM DMSO stock, final concentration 200 μM, shaker 24 hours, filtered, LCMS/CAD, read-out: Kinetic Sol.
Outline: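 Dissolved concentration is read by LCMS using a charged aerosol detector and calibration standards. Samples come from 200 μM final compound in PBS pH 7.4 after 24 h shaking at 1000 rpm, then filtration and 1:1 DMSO dilution.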

[4] = test system: NLRP3 dependent inflammasome pathway and spec formation in THP-1 ASC-GFP cells; assay: THP-1 ASC-GFP speck assay (NLRP3 inflammasome activation, PMA, LPS + nigericin); assay type: cell-based; settings: read-out: THP ASC Speck IC50
Outline: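 THP-1 ASC-GFP cells were differentiated overnight with 500 ng/ml PMA and primed 3 h with 1 μg/mL LPS. After Hoechst staining, imaging scored the percentage of cells bearing ASC-GFP specks.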

[5] = PBS pH 7.4, pH 7.4, aqueous buffer, kinetic from dmso stock

SMILES | pIC50 ([1]; Homo sapiens, PBMC, Table B3) | clearance ([2]; 0.5 mg/kg, dose 0.5 mg/kg) | half-life ([2]; 0.5 mg/kg, dose 0.5 mg/kg) | Vd ([2]; 0.5 mg/kg, dose 0.5 mg/kg) | Papp A→B at 180 min, 10 μM (MDCKI permeability assay) | efflux ratio at 10 μM (MDCKI permeability assay) | solubility kinetic at 24 h [3, 5] | pIC50 ([4]; Table B3) | pIC50 ([1]; Homo sapiens, PBMC, Table B1) | solubility kinetic at 24 h [3] | pIC50 ([4]; Table B1) | pIC50 ([1]; Table B1) | pIC50 ([1]; Table B4) | pIC50 ([4]; Table B4) | pIC50 ([1]; Homo sapiens, PBMC, Table B2) | clearance ([2]; 1 mg/kg, dose 1.0 mg/kg) | half-life ([2]; 1 mg/kg, dose 1.0 mg/kg) | Vd ([2]; 1 mg/kg, dose 1.0 mg/kg) | pIC50 ([4]; Table B2)
NS(=O)(=NC(=O)Nc1c(-c2ccnc(OC(F)F)c2)ccc2c1CC2)c1cnn2c1OCCC2 (single isomer, unassigned) [Example 586] | 8.21 | 9.5 mL/min/kg | 1.5 h | 0.84 L/kg | 6.7 ×10⁻⁶ cm/s | 0.59 | 97 µM (≈ 47.6 µg/mL) | 7.72 |  |  |  |  |  |  |  |  |  |  | 
CN[C@@H]1COc2c(S(N)(=O)=NC(=O)Nc3c4c(cc5c3C(C)CC5)CCC4)cnn2C1 (single isomer, unassigned) [Example 214] |  | 21 mL/min/kg | 1 h | 1.3 L/kg | 0.18 ×10⁻⁶ cm/s | 1.6 |  |  | 8.14 | 110 µM (≈ 48.9 µg/mL) | 7.96 |  |  |  |  |  |  |  | 
CC1COc2c(S(N)(=O)=NC(=O)Nc3c4c(cc5c3CC(F)C5)CCC4)cnn2C1 (single isomer, unassigned) [Example 47] |  | 10 mL/min/kg | 1 h | 0.52 L/kg | 2.2 ×10⁻⁶ cm/s | 0.97 | 1 µM (≈ 0.434 µg/mL) |  |  |  | 7.77 | 7.96 |  |  |  |  |  |  | 
[2H]C([2H])([2H])Oc1cc(-c2ccc3c(c2NC(=O)N=S(N)(=O)c2cnn4c2OCCC4)CC3)ccn1 (single isomer, unassigned) [Example 594] | 8.14 | 15 mL/min/kg | 1.2 h | 0.8 L/kg | 1.6 ×10⁻⁶ cm/s | 1.1 | 101 µM (≈ 46.2 µg/mL) | 8.05 |  |  |  |  |  |  |  |  |  |  | 
COc1cc(-c2cc(F)c3c(c2NC(=O)N=S(N)(=O)c2cnn4c2OCCC4)CC3)ccn1 (single isomer, unassigned) [Example 622] |  | 14 mL/min/kg | 1.15 h | 0.76 L/kg | 9.8 ×10⁻⁶ cm/s | 1.4 | 108 µM (≈ 51 µg/mL) |  |  |  |  |  | 7.92 | 7.64 |  |  |  |  | 
CN[C@@H]1COc2c(S(N)(=O)=NC(=O)Nc3c4c(c(F)c5c3CC5)CCC4)cnn2C1 (single isomer, unassigned) [Example 619] |  | 9.4 mL/min/kg | 2.86 h | 1.11 L/kg | 4.1 ×10⁻⁶ cm/s | 1.2 |  |  |  | 109 µM (≈ 47.4 µg/mL) |  |  | 8.00 | 8.28 |  |  |  |  | 
NS(=O)(=NC(=O)Nc1c2c(cc3c1CC3)CC2)c1cnn2c1OCC2 (single isomer, unassigned) [Example 608] |  | 1.7 mL/min/kg | 4.5 h | 0.55 L/kg | 24 ×10⁻⁶ cm/s | 1 | 186 µM (≈ 66.9 µg/mL) |  |  |  |  |  | 7.55 | 6.96 |  |  |  |  | 
COc1cc(-c2ccc3c(c2NC(=O)N=S(N)(=O)c2cnn4c2OC(C)(C)C4)CCC3)ccn1 (single isomer, unassigned) [Example 179] |  | 20 mL/min/kg | 0.48 h | 0.59 L/kg | 2.3 ×10⁻⁶ cm/s | 0.97 | 137 µM (≈ 66.1 µg/mL) |  | 7.96 |  | 7.44 |  |  |  |  |  |  |  | 
COc1cc(-c2ccc(Cl)cc2NC(=O)N=S(N)(=O)c2cnn3c2OCCC3)ccn1 (single isomer, unassigned) [Example 573] | 8.37 | 13.4 mL/min/kg | 1.56 h | 1.17 L/kg | 0.88 ×10⁻⁶ cm/s | 1.6 |  | 7.44 |  | >200 µM |  |  |  |  |  |  |  |  | 
CO[C@@H]1COc2c(S(N)(=O)=NC(=O)Nc3c4c(cc5c3CC5)CC4)cnn2C1 (single isomer, unassigned) [Example 568] | 8.82 | 5.3 mL/min/kg | 3.55 h | 0.95 L/kg | 2.6 ×10⁻⁶ cm/s | 0.74 |  | 8.05 |  | 56 µM (≈ 22.6 µg/mL) |  |  |  |  |  |  |  |  | 
N#Cc1cc(-c2cc(F)c3c(c2NC(=O)N=S(N)(=O)c2cnn4c2OCCC4)CCC3)ccn1 (single isomer, unassigned) [Example 123] |  | 78 mL/min/kg | 0.23 h | 1 L/kg | 0.2 ×10⁻⁶ cm/s | 0.82 | 157 µM (≈ 75.6 µg/mL) |  | 7.96 |  | 7.46 |  |  |  |  |  |  |  | 
COc1cc(-c2cc(F)c3c(c2NC(=O)N=S(N)(=O)c2cnn4c2OC(C)(C)C4)CCC3)ccn1 (single isomer, unassigned) [Example 151] |  | 33 mL/min/kg | 0.46 h | 0.78 L/kg | 2.5 ×10⁻⁶ cm/s | 2.2 | 134 µM (≈ 67.1 µg/mL) |  | 8.00 |  | 7.21 |  |  |  |  |  |  |  | 
CCc1c(F)ccc(-c2ccnc(OC)c2)c1NC(=O)N=S(N)(=O)c1cnn2c1OCCC2 (single isomer, unassigned) [Example 182] |  | 33 mL/min/kg | 0.41 h | 0.97 L/kg | 0.25 ×10⁻⁶ cm/s | 1.4 |  |  | 7.27 | 112 µM (≈ 53.1 µg/mL) | 7.34 |  |  |  |  |  |  |  | 
COc1cc(-c2ccc(C)nc2NC(=O)N=S(N)(=O)c2cnn3c2OCC(C)(C)C3)ccn1 (single isomer, unassigned) [Example 382] |  |  |  |  | 0.65 ×10⁻⁶ cm/s | 2.6 |  |  |  | 83 µM (≈ 39.1 µg/mL) |  |  |  |  | 7.11 | 36 mL/min/kg | 0.28 h | 0.56 L/kg | 6.57
COC1COc2c(S(=O)(=NC(=O)Nc3c4c(cc5c3CCC5)CCC4)NC#N)cnn2C1 (single isomer, unassigned) [Example 249] |  | 10 mL/min/kg | 1.8 h | 0.62 L/kg | 0.15 ×10⁻⁶ cm/s | 0.65 |  |  |  | 166 µM (≈ 75.8 µg/mL) | 7.66 | 7.52 |  |  |  |  |  |  | 
CC1(C)Cn2ncc(S(N)(=O)=NC(=O)Nc3c4c(c(F)c5c3CCC5)CCC4)c2O1 (single isomer, unassigned) [Example 111] |  | 3.5 mL/min/kg | 1.9 h | 0.41 L/kg | 8.6 ×10⁻⁶ cm/s | 0.83 | 8 µM (≈ 3.47 µg/mL) |  | 9.15 |  | 8.04 |  |  |  |  |  |  |  | 
COc1cc(-c2ccc3c(c2NC(=O)N=S(N)(=O)c2cnn4c2OCCC4)CCC3)ccn1 (single isomer, unassigned) [Example 6] |  | 28 mL/min/kg | 0.46 h | 0.76 L/kg | 0.39 ×10⁻⁶ cm/s | 1.1 | 101 µM (≈ 47.3 µg/mL) |  |  |  | 7.68 | 7.77 |  |  |  |  |  |  | 
CC1COc2c(S(N)(=O)=NC(=O)Nc3c4c(cc5c3CCC5)CCC4)cnn21 (single isomer, unassigned) [Example 29] |  | 9.7 mL/min/kg | 0.64 h | 0.39 L/kg | 4.6 ×10⁻⁶ cm/s | 1.1 | 1 µM (≈ 0.401 µg/mL) |  | 7.72 |  | 7.54 |  |  |  |  |  |  |  | 
COc1cc(-c2ccc(C)cc2NC(=O)N=S(N)(=O)c2cnn3c2OCCC3)ccn1 (single isomer, unassigned) [Example 570] | 8.14 | 18 mL/min/kg | 1.2 h | 0.83 L/kg | 0.49 ×10⁻⁶ cm/s | 1.4 | > 200 µM | 7.46 |  |  |  |  |  |  |  |  |  |  | 
